For data set [1] the following is noted: vs. SHE in DMSO; cited from earlier work.
Data set [2] in a line: Solubility of AQS ionic derivatives in MeCN, measured by UV-vis (Beer's law). Conditions: cooled to room temperature after stirring at 40° C. The data set is classed as physicochemical. The text has this: Beer's law was used to measure the concentration of the solution using pre-determined molar extinction coefficient using standard calibration curve.
The conditions of data set [3]: vanadium(iv) ion chelation; cited from earlier work.
Data set [4] can be described thus: Cyclic voltammetry of AQS (Randles-Sevcik analysis). Type of data set: physicochemical. As for the experimental part: Cyclic voltammetry was performed at room temperature in inert atmosphere of dinitrogen using three electrode cell on a VersaSTAT3 workstation. (Princeton Applied Research, USA). Glassy carbon (3 mm, Basi) was employed as working electrode and platinum wire was used as counter electrode. Ag wire was used as pseudo reference electrode with Fc/Fc^+ couple as an internal standard for initial redox potential evaluation. Subsequently, all potentials were referenced to SHE. Diffusion coefficient was calculated using Randles-Sevcik equation as follow.
where, ip is the peak current, n is number electron in redox reaction, F is faraday constant, A is geometrical surface area of electrode, C is the bulk concentration of analyte, ν is scan rate, D is diffusion coefficient and R and T are gas constant and absolute temperature. CV curves were obtained at various scan rate and peak current were plotted against square root of scan rate. Slope (m) of the linear fit was used to determine diffusion coefficient using following equation.

As to “vanadium(IV/V)bis-hydroxyiminodiacetate [VBH]”, the “E° (standard potential)” value in data set [1] is reported as 0.30 V.
As for `O=C1c2ccccc2C(=O)c2cc(S(=O)(=O)[O-])ccc21.[Na+]` [NaAQS, sodium anthraquinone-2-sulfonate, reference compound], in data set [2] (MeCN (acetonitrile), organic solvent or mixture, thermodynamic from solid), the solubility (commonly the concentration that dissolves in the medium under given conditions) at 15 min was less than 1 mM.
With `CCCC[N+](CCCC)(CCCC)CCCC.O=C1c2ccccc2C(=O)c2cc(S(=O)(=O)[O-])ccc21` [N4444AQS], in data set [2], the Solubility (in general, the concentration that dissolves in the medium under given conditions) amounted to 1260 mM.
Molecule `O=C1c2ccccc2C(=O)c2ccccc21` [AQ, reference compound] returned a Solubility in data set [2] of less than 5 mM.
As to `C[C@@H](C(=O)[O-])N(O)[C@@H](C)C(=O)[O-].C[C@@H](C(=O)[O-])N(O)[C@@H](C)C(=O)[O-].[V+4]` [Amavadin], the “log equilibrium constant (log Keq), stability constant” value in data set [3] was 23.
Consider `O=C1c2ccccc2C(=O)c2cc(S(=O)(=O)O)ccc21` [AQS, Anthraquinone 2-sulfonate], for which the diffusion coefficient in data set [4] (CV at various scan rates, Randles-Sevcik plot) is 8.46×10^−6 cm^2 s^−1. In addition, in data set [4] (vs SHE), the “potential of first electrochemically reversible wave (1^−/2^− couple)” value is listed as −0.6 V and the “potential of second electrochemically reversible wave (2^−/3^− couple)” value is reported as −1.2 V.
In data set [2], `CC[N+](CC)(CC)CC.O=C1c2ccccc2C(=O)c2cc(S(=O)(=O)[O-])ccc21` [N2222AQS] gave a Solubility of 105 mM.
In data set [2], `CCC[N+](CCC)(CCC)CCC.O=C1c2ccccc2C(=O)c2cc(S(=O)(=O)[O-])ccc21` [N3333AQS] registered a Solubility of 640 mM.

The record behind these values is patent US20230335758A1, “REDOX FLOW BATTERY” (University of Massachusetts, priority 2022, published 2023).
